Where “and” joins values, the source holds several entries; their conditions need not be identical. Equal entries are not always repeated. Inconclusive results and toxic doses are left out. No stated cut-off is given here; in the data, active means T/C of 150% or more; inactive means T/C below 125%.
Tested on: L1210 leukemia ip in BDF1 mice, survival T/C
Test: NCI In Vivo Anticancer Drug Screen. Data for tumor model L1210 Leukemia (intraperitoneal) in B6D2F1 (BDF1) mice
Details: endpoint: mean survival time, higher = longer survival
Method in brief: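 Tumor was transplanted into mice, which were then dosed with test compound or vehicle alone. Survival was recorded for each group, and the treated figure was expressed relative to the control figure.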

[1] = dose: 100.0 mg/kg/injection, schedule: Q01DX009 (ip), vehicle: saline
[2] = dose: 100.0 mg/kg/injection, schedule: Q04DX003 (ip), vehicle: saline
[3] = dose: 200.0 mg/kg/injection, schedule: Q01DX009 (ip), vehicle: saline
[4] = dose: 200.0 mg/kg/injection, schedule: Q04DX003 (ip), vehicle: saline
[5] = dose: 100.0 mg/kg/injection, schedule: Q04DX002 (ip), vehicle: Klucel (hydroxypropylcellulose) (HPC)
[6] = dose: 200.0 mg/kg/injection, schedule: Q04DX002 (ip), vehicle: Klucel (hydroxypropylcellulose) (HPC)
[7] = dose: 400.0 mg/kg/injection, schedule: Q04DX002 (ip), vehicle: Klucel (hydroxypropylcellulose) (HPC)
[8] = dose: 100.0 mg/kg/injection, schedule: Q04DX003 (ip), vehicle: Klucel (hydroxypropylcellulose) (HPC)
[9] = dose: 200.0 mg/kg/injection, schedule: Q04DX003 (ip), vehicle: Klucel (hydroxypropylcellulose) (HPC)
[10] = dose: 400.0 mg/kg/injection, schedule: Q04DX003 (ip), vehicle: Klucel (hydroxypropylcellulose) (HPC)
[11] = dose: 100.0 mg/kg/injection, schedule: Q01DX001 (ip), vehicle: saline
[12] = dose: 200.0 mg/kg/injection, schedule: Q01DX001 (ip), vehicle: saline
[13] = dose: 50.0 mg/kg/injection, schedule: Q01DX Z (ip), vehicle: carboxymethylcellulose (CMC)
[14] = dose: 100.0 mg/kg/injection, schedule: Q01DX Z (ip), vehicle: carboxymethylcellulose (CMC)

Measured: T/C

Cc1ccc(NC(=S)NC(=O)/C=C/c2ccccc2)cc1Cl
inactive: dose: 25.0 mg/kg/injection, schedule: Q01DX009 (ip), vehicle: saline with Tween-80 94 % of control | dose: 50.0 mg/kg/injection, schedule: Q01DX009 (ip), vehicle: saline with Tween-80 96 % of control and 86 % of control | dose: 100.0 mg/kg/injection, schedule: Q01DX001 (ip), vehicle: saline with Tween-80 87 % of control | dose: 100.0 mg/kg/injection, schedule: Q04DX002 (ip), vehicle: saline with Tween-80 97 % of control | dose: 200.0 mg/kg/injection, schedule: Q01DX001 (ip), vehicle: saline with Tween-80 87 % of control | dose: 200.0 mg/kg/injection, schedule: Q04DX002 (ip), vehicle: saline with Tween-80 87 % of control and 89 % of control | dose: 400.0 mg/kg/injection, schedule: Q04DX002 (ip), vehicle: saline with Tween-80 87 % of control and 89 % of control

C(CSC1=NCCN1)CSC1=NCCN1
inactive: dose: 6.25 mg/kg/injection, schedule: Q01DX009 (ip), vehicle: saline 105 % of control | dose: 12.5 mg/kg/injection, schedule: Q01DX009 (ip), vehicle: saline 111 % of control | dose: 25.0 mg/kg/injection, schedule: Q01DX009 (ip), vehicle: saline 107 % of control | dose: 50.0 mg/kg/injection, schedule: Q01DX009 (ip), vehicle: saline 117 % of control | [1] 115 % of control | [2] 100 % of control | [3] 115 % of control | [4] 108 % of control

Cc1ccc(S(=O)(=O)N(CCCc2c(C)[nH]c(=S)[nH]c2=O)c2ccccc2)cc1
inactive: dose: 50.0 mg/kg/injection, schedule: Q04DX002 (ip), vehicle: Klucel (hydroxypropylcellulose) (HPC) 91 % of control | [5] 100 % of control and 91 % of control | [6] 100 % of control and 91 % of control | [7] 100 % of control

CCCNC(=O)CS(=O)(=O)c1ccc(N)cc1
inactive: dose: 100.0 mg/kg/injection, schedule: Q04DX003 (ip), vehicle: saline with Tween-80 97 % of control | dose: 200.0 mg/kg/injection, schedule: Q04DX003 (ip), vehicle: saline with Tween-80 95 % of control | dose: 400.0 mg/kg/injection, schedule: Q04DX003 (ip), vehicle: saline with Tween-80 97 % of control

N#Cc1ccncc1
inactive: dose: 100.0 mg/kg/injection, schedule: Q01DX009 (ip), vehicle: Klucel (hydroxypropylcellulose) (HPC) 91 % of control | dose: 200.0 mg/kg/injection, schedule: Q01DX009 (ip), vehicle: Klucel (hydroxypropylcellulose) (HPC) 93 % of control | dose: 400.0 mg/kg/injection, schedule: Q01DX009 (ip), vehicle: Klucel (hydroxypropylcellulose) (HPC) 96 % of control

CCCCCCCCCCCCCCCCNS(=O)(=O)c1ccc(Br)cc1
inactive: dose: 100.0 mg/kg/injection, schedule: Q01DX001 (ip), vehicle: Klucel (hydroxypropylcellulose) (HPC) 96 % of control | [8] 91 % of control | dose: 200.0 mg/kg/injection, schedule: Q01DX001 (ip), vehicle: Klucel (hydroxypropylcellulose) (HPC) 93 % of control | [9] 95 % of control | dose: 400.0 mg/kg/injection, schedule: Q01DX001 (ip), vehicle: Klucel (hydroxypropylcellulose) (HPC) 96 % of control | [10] 103 % of control

Cc1ccc(S(=O)(=O)NC(CCC(=O)O)C(=O)O)cc1 (stereo not given)
inactive: [11] 91 % of control | [1] 93 % of control | [2] 108 % of control | [12] 102 % of control | [3] 100 % of control | [4] 103 % of control | dose: 400.0 mg/kg/injection, schedule: Q01DX009 (ip), vehicle: saline 88 % of control | dose: 400.0 mg/kg/injection, schedule: Q04DX003 (ip), vehicle: saline 106 % of control

CC(C)OC(=O)Nc1cccc(Br)c1
inactive: [5] 92 % of control | [6] 106 % of control | [7] 95 % of control

O=C(Nc1cccc(C2=NCCN2)c1)c1ccc(-c2ccc(C(=O)Nc3cccc(C4=NCCN4)c3)cc2)cc1
inactive: [13] 101 % of control | dose: 65.0 mg/kg/injection, schedule: Q01DX Z (ip), vehicle: methylcellulose (MC) 121 % of control | [14] 120 % of control | dose: 100.0 mg/kg/injection, schedule: Q01DX Z (ip), vehicle: methylcellulose (MC) 113 % of control | dose: 400.0 mg/kg/injection, schedule: Q01DX Z (ip), vehicle: carboxymethylcellulose (CMC) 117 % of control

CCC(C)(O)C#N (stereo not given)
inactive: dose: 2.2 mg/kg/injection, schedule: Q01DX Z (ip), vehicle: saline 104 % of control | dose: 3.3 mg/kg/injection, schedule: Q01DX Z (ip), vehicle: saline 94 % of control | dose: 5.0 mg/kg/injection, schedule: Q01DX Z (ip), vehicle: saline 98 % of control

CCCCCCCCCCCC[N+](CCCCCCCCCCCC)=C1SCCS1
inactive: dose: 1.56 mg/kg/injection, schedule: Q04DX003 (ip), vehicle: carboxymethylcellulose (CMC) 96 % of control | dose: 3.13 mg/kg/injection, schedule: Q04DX003 (ip), vehicle: carboxymethylcellulose (CMC) 104 % of control | dose: 6.25 mg/kg/injection, schedule: Q04DX003 (ip), vehicle: carboxymethylcellulose (CMC) 110 % of control

Clc1ccccc1C(c1ccccc1)(c1ccc2ccccc2c1)n1ccnc1 (stereo not given)
inactive: [8] 102 % of control | [9] 101 % of control | [10] 101 % of control

COc1ccc(/C(C#N)=C/c2ccncc2)cc1OC
inactive: dose: 100.0 mg/kg/injection, schedule: Q01DX001 (ip), vehicle: other 105 % of control | dose: 200.0 mg/kg/injection, schedule: Q01DX001 (ip), vehicle: other 94 % of control | dose: 400.0 mg/kg/injection, schedule: Q01DX001 (ip), vehicle: other 97 % of control

C[C@]12C(=O)OC(=O)[C@H]1[C@H]1CC[C@@H]2C1
inactive: [11] 110 % of control | dose: 100.0 mg/kg/injection, schedule: Q01DX009 (ip), vehicle: acetone 102 % of control | dose: 100.0 mg/kg/injection, schedule: Q04DX003 (ip), vehicle: acetone 104 % of control | [12] 106 % of control | dose: 200.0 mg/kg/injection, schedule: Q01DX009 (ip), vehicle: acetone 89 % of control | dose: 200.0 mg/kg/injection, schedule: Q04DX003 (ip), vehicle: acetone 101 % of control | dose: 400.0 mg/kg/injection, schedule: Q01DX001 (ip), vehicle: saline 111 % of control | dose: 400.0 mg/kg/injection, schedule: Q04DX003 (ip), vehicle: acetone 104 % of control

COC(=O)c1cc(Cl)ccc1O
inactive: dose: 37.5 mg/kg/injection, schedule: Q04DX003 (ip), vehicle: Klucel (hydroxypropylcellulose) (HPC) 100 % of control | dose: 75.0 mg/kg/injection, schedule: Q04DX003 (ip), vehicle: Klucel (hydroxypropylcellulose) (HPC) 100 % of control | dose: 150.0 mg/kg/injection, schedule: Q04DX003 (ip), vehicle: Klucel (hydroxypropylcellulose) (HPC) 92 % of control

c1coc(NC2CCCCC2)n1
inactive: dose: 100.0 mg/kg/injection, schedule: Q01DX009 (ip), vehicle: saline with Tween-80 100 % of control | dose: 200.0 mg/kg/injection, schedule: Q01DX009 (ip), vehicle: saline with Tween-80 92 % of control | dose: 400.0 mg/kg/injection, schedule: Q01DX009 (ip), vehicle: saline with Tween-80 86 % of control

COc1c2ccoc2nc2c(OC)c(OCC(O)C(C)(C)O)ccc12 (stereo not given)
inactive: [13] 97 % of control | [14] 100 % of control
